{
  "source": "patent US4550172A",
  "about": "“Novel heterocyclic compounds as antiallergic agents” (American Home Products Corporation, priority 1984, dated 1985)",
  "tested_on": "LTD4 induced bronchoconstriction",
  "experiment": "inhibition of LTD4-induced bronchospasm in guinea pigs (SRS-A antagonist properties)",
  "type": "in vivo, guinea pigs (male Hartley strain)",
  "conditions": "LTD4 for induction, compound 50 mg/kg intraduodenal, 10 minutes before induction of bronchospasm",
  "method": "The assay of this Example measures the in vivo ability of the components of the invention to inhibit the bronchospasm induced in guinea pigs by the exogenously administered leukotrienes C4 and/or D4. This assay is essentially a measure of the SRS-A antagonist properties of the compounds tested.\nThis assay is carried out as follows:\nMale Hartley strain guinea pigs (350-600 g) are anesthetized with pentobarbital sodium (50 mg/kg, i.p.). The jugular vein is cannulated for injection of drugs and the carotid artery for monitoring blood pressure. The trachea is cannulated for artificial ventilation by a miniature Starling pump and for indirect measurement of respiratory volume changes as described infra. Additional pentobarbital sodium (15 mg/kg, i.v.) is administered to arrest spontaneous respiration. Submaximal bronchoconstrictor responses are established in control animals by varying the dose-levels of leukotriene. Intravenous dose-levels for LTC4 range from 1 to 2 μg/kg and for LTD4 the range is from 0.3 to 1 μg/kg. The aerosol bronchoprovocation dose for LTC4 is generated from 1.6 μM solution and for LTD4 from a 2.0 μM solution.\nTest drugs are administered either intravenously, intraduodenally, by aerosol or orally at 1 or 10 minutes before induction of bronchospasm by administration of either LTC4 or LTD4 at the predetermined dose-levels. Aerosols of soluble drugs or leukotrienes are produced in-line for 10 seconds only by actuation of an ultrasonic nebulizer (Monaghan). Aerosolized drug dosage is expressed in terms of solution concentration and by a fixed aerosol exposure time (approximately 10 seconds). Control animals receive saline in place of drug.\nRespiratory volume changes are determined by a calibrated piston whose travel is recorded, via a linear transducer, on a Beckman Dynograph recorder. Maximal bronchoconstrictor volume is determined by clamping off the trachea at the end of the experiment. Overflow volumes at 1, 3 and 5 minutes are obtained from the recorded charts.\nThe overflow volume at 1, 3 and 5 minutes is expressed as a percentage of maximal bronchoconstriction. Combined group values are used from each of these time intervals to determine the inhibitory effect of drugs. [formula] Students t-test for unpaired data is used to determine statistical significance. Dose response curves are generated and ED50 doses are interpolated from the regression lines.\nResults for a compound of the invention in this assay, using LTD4 for induction of bronchospasm, is given below: […]",
  "data": [
    {"smiles": "O=C1CCC(=O)N1c1cccc(OCc2nc3ccccc3s2)c1", "note": "[Example 1, N-[3-[(2-benzothiazolyl)methoxy]phenyl]pyrrolidin-2,5-dione]", "values": [
      {"measurement": "% Inhibition Overflow Volume at 3 min.", "result": 63, "unit": "%"},
      {"measurement": "% Inhibition Overflow Volume at 5 min.", "result": 68, "unit": "%"}
    ]},
    {"smiles": "Cn1c(COc2cccc(N3C(=O)CCC3=O)c2)nc2ccccc21", "note": "[Example 2, N-[3-[(1-methyl-2-benzimidazolyl)methoxy]phenyl]pyrrpolidin-2,5-dione]", "values": [
      {"measurement": "% Inhibition Overflow Volume at 3 min.", "result": 75, "unit": "%"},
      {"measurement": "% Inhibition Overflow Volume at 5 min.", "result": 78, "unit": "%"}
    ]}
  ]
}
